Source: US7803942B2, “Crystals of morphinan derivative and process for producing the same” (Toray Industries, Inc., priority 2005, dated 2010)

Experiment: pH of aqueous solution after production (Test Example 2)
Type: physicochemical
Settings: 100 mg dissolved in 10 mL of decarbonated water; pH reproducibility after production; hydrochloride
Protocol: There was taken 100 mg each of the amorphous powders obtained in Reference Examples 1 to 3 and the A-form crystals obtained in Examples 1 to 3, to which 10 mL of decarbonated water was added for dissolution, followed by measuring the pH.

Structure (SMILES): CN(C(=O)/C=C/c1ccoc1)[C@@H]1CC[C@@]2(O)[C@H]3Cc4ccc(O)c5c4[C@@]2(CCN3CC2CC2)[C@H]1O5.Cl [Example 1, 17-cyclopropylmethyl-3,14β-dihydroxy-4,5α-epoxy-6β-[N-methyl-trans-3-(3-furyl)acrylamido]morphinan hydrochloride]
- pH: 5.8

Structure (SMILES): CN(C(=O)/C=C/c1ccoc1)[C@@H]1CC[C@@]2(O)[C@H]3Cc4ccc(O)c5c4[C@@]2(CCN3CC2CC2)[C@H]1O5.Cl [Example 2, 17-cyclopropylmethyl-3,14β-dihydroxy-4,5α-epoxy-6β-[N-methyl-trans-3-(3-furyl)acrylamido]morphinan hydrochloride]
- pH: 5.4

Structure (SMILES): CN(C(=O)/C=C/c1ccoc1)[C@@H]1CC[C@@]2(O)[C@H]3Cc4ccc(O)c5c4[C@@]2(CCN3CC2CC2)[C@H]1O5.Cl [Example 3, 17-cyclopropylmethyl-3,14β-dihydroxy-4,5α-epoxy-6β-[N-methyl-trans-3-(3-furyl)acrylamido]morphinan hydrochloride]
- pH: 5.6

Structure (SMILES): CN(C(=O)/C=C/c1ccoc1)[C@@H]1CC[C@@]2(O)[C@H]3Cc4ccc(O)c5c4[C@@]2(CCN3CC2CC2)[C@H]1O5.Cl [Reference Example 1, 17-cyclopropylmethyl-3,14β-dihydroxy-4,5α-epoxy-6β-[N-methyl-trans-3-(3-furyl)acrylamido]morphinan hydrochloride]
- pH: 3.7

Structure (SMILES): CN(C(=O)/C=C/c1ccoc1)[C@@H]1CC[C@@]2(O)[C@H]3Cc4ccc(O)c5c4[C@@]2(CCN3CC2CC2)[C@H]1O5.Cl [Reference Example 2, 17-cyclopropylmethyl-3,14β-dihydroxy-4,5α-epoxy-6β-[N-methyl-trans-3-(3-furyl)acrylamido]morphinan hydrochloride]
- pH: 4.7

Structure (SMILES): CN(C(=O)/C=C/c1ccoc1)[C@@H]1CC[C@@]2(O)[C@H]3Cc4ccc(O)c5c4[C@@]2(CCN3CC2CC2)[C@H]1O5.Cl [Reference Example 3, 17-cyclopropylmethyl-3,14β-dihydroxy-4,5α-epoxy-6β-[N-methyl-trans-3-(3-furyl)acrylamido]morphinan hydrochloride]
- pH: 3.5
